System: chitin deacetylase (CDA)
Assay: p-nitroaniline release, absorbance at […] nm
Type: biochemical, Aneurinibacillus aneurinilyticus
Details: 50 mM phosphate buffer pH 7.4, 37 °C; partially purified enzyme with two bands

SMILES: CC(=O)Nc1ccc([N+](=O)[O-])cc1 [p-nitroacetanilide]
- Km: 98.5 µM

From PMC11638627 (Current Research in Microbial Sciences, 2024)
